The text below walks through data of EP4745130A1, “CRYSTAL FORMS OF TUBULIN-SRC DUAL-TARGETING INHIBITOR, PREPARATION METHOD THEREFOR AND USE THEREOF” (Hubei Bio-Pharmaceutical Industrial Technological Institute …, priority 2023, dated 2025).

The target in one data set is T1, tubulin (Sus scrofa, UniProt P02550+P02554).
T1 construct: purchased cytoskeleton BK011P
Put plainly: Inhibition test of tubulin monomer polymerization (Tubulin polymerization assay kit, fluorescence). It is filed as biochemical. The procedure: Tubulin polymerization assay kit (cytoskeleton, Cat. # BK011P) was used to conduct the compound inhibition test of tubulin monomer polymerization.
Before the test, the 96-well plate (Corning Costar, Cat. # 3686) supplied with the kit was first placed in a microplate reader (MD, SpectraMax M5) and heated to 37°C, maintained for 10 minutes. The 96-well plate was then removed, and 5 µL of 12.5 µM compound solution or blank solution was added thereto. The 96-well plate was then placed back into the microplate reader and incubated at 37°C for 1 minute to heat the compound solution to 37°C. The 96-well plate was removed and 50 µL of reaction mixture prepared according to the supplier's instructions was quickly added to each well, completing the sample addition within 1 minute to avoid the formation of bubbles. The 96-well plate was then immediately placed back into the microplate reader, shaken for 5 seconds, and using the Kinetic mode, continuous detection was carried out at 37°C for 30 to 60 minutes under the conditions of excitation light at 360 nm and emission light at 420 nm, with detection every 30 seconds. Taking the detection time as the X-axis and the fluorescence signal value as the Y-axis, the tubulin monomer polymerization curve was obtained. As shown in FIG. 66 and Table 40, the larger the Vmax value and the higher the maximum fluorescence signal value of the polymerization curve, the lower the inhibitory efficiency of the compound.

Data set [1] has as its system Human cutaneous squamous cell carcinoma cell A-431. Put plainly: Cell proliferation inhibition test, A-431. It is filed as cell-based. The note with it: A-431, 96 h, 4 days incubation. As for the experimental part: Human cutaneous squamous cell carcinoma cell A-431 (ATCC, CRL-1555) and actinic keratosis patient-derived cell HT 297.T (ATCC, CRL-7782) proliferation assays were used to detect the inhibitory effect of small molecular compounds on cell proliferation.
A-431 cells and HT 297.T cells were cultured in DMEM medium containing 10% fetal bovine serum and grown at 37°C in a 5% CO2 incubator. Cells on logarithmic phase were seeded into a 96-well cell culture plate at 1000 cells/well, 100 µL per well, and then cultured overnight at 37°C in a 5% CO2 incubator. The next day, 100 µL of gradient-diluted 2× test compound solution was added to each well, with DMSO serving as a positive control, and 10 µM staurosporine (Aladdin, S102392) was set as a negative control group. After the addition of the compounds, the culture plate was incubated for another 4 days at 37°C in a 5% CO2 incubator. After incubation, the Steady-Glo® luciferase assay system (Promega, G9243) was used according to the supplier's instructions to measure the fluorescence signal value on the Envision 2104 Multilabel Reader. The inhibition rate was calculated by the following formula, then the curve was plotted with the Log value of the inhibitor concentration as the X-axis and the inhibition rate as the Y-axis, and the IC50 was calculated using Graphpad 8.0. [formula] […]

The nature of data set [2]: Thermodynamic solubility test. It counts as physicochemical. The settings on record: for solubility: thermodynamic from solid, 4 mg/mL, overnight at room temperature. As for the experimental part:
Phosphate buffer saline (PBS) with a pH of 7.4, FeSSIF solution with a pH of 6.5, and FaSSGF solution with a pH of 1.6 were prepared. The compound was accurately weighed and added to prepared phosphate buffer saline with a pH of 7.4, FeSSIF solution with a pH of 6.5, and FaSSGF solution with a pH of 1.6 to prepare into a solution with a concentration of 4 mg/mL. The solution was shaken at a speed of 1000 rpm for 1 hour, and then incubated overnight at room temperature. The incubated solution was centrifuged at 12,000 rpm for 10 minutes to remove undissolved particles, and the supernatant was transferred to a new centrifuge tube. After the supernatant was appropriately diluted, an acetonitrile solution containing internal standard was added, and a standard curve prepared with the same matrix was used for quantification. Table 42: Thermodynamic solubility test results

Data set [3] can be described thus: Pharmacokinetic test in mice. It is filed as in vivo. The procedure:
For the pharmacokinetic test in mice, 3 male ICR mice, 20 to 25 g, were used, fasted overnight, and administered by tail vein injection (1 mg/kg or 5 mg/kg). Blood was collected before the administration, and at 15 min, 30 min, 1 hour, 2 hours, 4 hours, 8 hours, and 24 hours after the administration. Another 3 mice were taken and administered by oral gavage (5 mg/kg), and blood was collected before the administration, and at 15 min, 30 min, 1 hour, 2 hours, 4 hours, 8 hours, and 24 hours after the administration. Blood samples were centrifuged at 6800 g at 2 to 8°C for 6 min, and plasma was collected and stored at -80°C. The plasma at each time point was taken and added with an acetonitrile solution containing internal standard in 3 to 5 times the amount. The mixture was vortexed and mixed for 1 min, and centrifuged at 13,000 rpm at 4°C for 10 min. The supernatant was collected, added with water in 3 times the amount, and mixed. An appropriate amount of the mixture was taken for LC-MS/MS analysis. The main pharmacokinetic parameters were analyzed using WinNonlin 7.0 software with non-compartmental model. Table 43: Results 1 of pharmacokinetic tests in mice

A further data set concerns p-SRC. Put plainly: Inhibition of Src signaling pathway (Western Blot of p-SRC in A-431 cells). It is filed as cell-based, Human. As for the experimental part:
The Western Blot method was used to detect the compound's inhibition of p-SRC in A-431 skin cancer cells (ATCC, CRL-1555) to evaluate the inhibitory effect of the compound on the SRC signaling pathway.
A-431 cells were cultured in DMEM medium containing 10% fetal bovine serum and grown at 37°C in a 5% CO2 incubator. 500,000 cells/well were seeded in a 12-well cell culture plate and cultured overnight at 37°C in a 5% CO2 incubator. The next day, the culture medium was replaced and different concentrations of the compound were added, with DMSO serving as a control. After the addition of the compounds, the culture plate was cultured for another 24 hours at 37°C in a 5% CO2 incubator. The cells were washed once with PBS, and lysed with RIPA lysis buffer (R0010, Solarbio) at low temperature for 30 minutes. Afterwards, the protein lysate was collected into a centrifuge tube, centrifuged at 14,000 g at 4°C for 10 minutes, and the supernatant was transferred to a new tube. The BCA protein concentration assay kit (P0009, Beyotime Biotechnology) was used to detect and calculate the protein concentration. A 5× protein loading buffer was used to quantify the protein of each sample consistently. The samples were boiled at 100°C for 5 minutes, and subjected to western blot to detect the level of p-SRC. […]
Background: In western blotting, separated proteins are transferred to a membrane and probed.

The mark [4] stands for this setting: in words, compared with the control compound.
The mark [5] stands for this setting: mouse, plasma, male ICR mice, intravenous injection administration (1 mg/kg).
Setting [6] is: mouse, plasma, male ICR mice, oral gavage administration (5 mg/kg).

Read-outs that look alike come from different tables or passages of the source.

T1 sequence (P02550 whole entry): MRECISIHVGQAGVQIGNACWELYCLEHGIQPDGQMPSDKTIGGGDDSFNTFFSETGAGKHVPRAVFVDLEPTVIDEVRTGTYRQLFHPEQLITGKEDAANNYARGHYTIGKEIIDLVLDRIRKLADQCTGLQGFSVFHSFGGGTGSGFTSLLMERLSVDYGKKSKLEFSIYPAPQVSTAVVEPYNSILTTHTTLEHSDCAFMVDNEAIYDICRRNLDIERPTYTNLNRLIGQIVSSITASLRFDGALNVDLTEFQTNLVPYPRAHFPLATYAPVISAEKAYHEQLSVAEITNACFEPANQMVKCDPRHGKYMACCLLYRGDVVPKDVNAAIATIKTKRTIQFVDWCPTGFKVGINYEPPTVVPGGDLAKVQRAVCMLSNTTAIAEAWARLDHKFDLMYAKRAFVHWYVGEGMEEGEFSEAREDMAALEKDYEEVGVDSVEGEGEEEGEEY
T1 sequence (P02554 whole entry): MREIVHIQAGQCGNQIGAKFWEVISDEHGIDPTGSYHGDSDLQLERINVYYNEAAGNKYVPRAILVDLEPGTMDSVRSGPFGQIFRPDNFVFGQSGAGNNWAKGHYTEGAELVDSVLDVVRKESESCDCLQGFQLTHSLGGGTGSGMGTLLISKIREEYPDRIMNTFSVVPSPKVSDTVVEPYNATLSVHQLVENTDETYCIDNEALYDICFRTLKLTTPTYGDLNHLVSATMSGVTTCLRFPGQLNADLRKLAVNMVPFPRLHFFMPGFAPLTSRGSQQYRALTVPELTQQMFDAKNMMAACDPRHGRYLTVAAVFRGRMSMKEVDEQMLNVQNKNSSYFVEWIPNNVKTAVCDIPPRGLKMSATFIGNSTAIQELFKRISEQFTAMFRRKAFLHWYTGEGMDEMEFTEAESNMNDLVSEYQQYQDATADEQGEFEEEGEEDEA

Regarding `Cc1cc(OCCN2C[C@H]3COC[C@H]3C2)ccc1-c1ccc(CC(=O)NCc2ccccc2)nc1` [Compound of Formula I, N-benzyl-2-(5-(2-methyl-4-(2-((3aR,6aS)-tetrahydro-1H-furo[3,4-c]pyrrol-5(3H)-yl)ethoxy)phenyl)pyridin-2-yl)acetamide], the Maximum signal value on tubulin (5 µL of 12.5 µM compound solution, fluorescence ex 360 nm / em 420 nm, 37°C, larger value = lower inhibitory efficiency) amounted to 478. On tubulin (in words), the “Vmax value and maximum fluorescence signal value of the polymerization curve” value was “significantly smaller”. The same compound gave an IC50 in data set [1] of 22.6 nM. In addition, the solubility in data set [2] (FeSSIF solution, FeSSIF (pH 6.5), read-out: Solubility (µg/mL) FeSSIF (pH 6.5)) was determined as 650 µg/mL. Moreover, the thermodynamic solubility result in data set [2] (in words, under neutral conditions, compared with the control compound) was “greater thermodynamic solubility”. Besides, the solubility in data set [2] (phosphate buffer saline (PBS), aqueous buffer, PBS (pH 7.4), read-out: Solubility (µg/mL) PBS (pH 7.4)) amounted to 101 µg/mL. Further, the “metabolism in mice in vivo” value in data set [3] (setting [4]) is given as “rapid metabolism”. In data set [3] (setting [5]), this compound gave an AUC(0-t) of 430 ng·h/mL and a clearance of 34.5 mL/min/kg. In data set [3] (setting [6]), the AUC(0-t) was 443 ng·h/mL and the Cmax was determined as 322 ng/mL. Also, in the data set with p-SRC (80 nM, A-431 cells, 24 hours), the “phosphorylation of SRC” value is “significantly inhibit the phosphorylation of SRC”. In addition, the p-SRC inhibitory activity entry with p-SRC (setting [4]) is recorded as “better p-SRC inhibitory activity compared with the control compound”.

One may read the IC50 as the concentration at which inhibition is half-maximal. Lower therefore signals greater potency in that assay. In general, AUC(0-t) refers to the area under the concentration-time curve up to a stated or last time point. One may read the clearance as the volume of plasma or blood freed of the substance per unit of time. For orientation: Cmax means the peak of the concentration-time curve.
